In US4311694A, “Amorphous coprecipitates of 4-(monoalkylamino) benzoic acid and derivatives and certain water-soluble materials” (priority 1979, dated 1982):

Key:
[1] = Comparative water solubility of precipitates (Example 4); assay type: physicochemical; conditions: 1 mg./ml. of drug
physchem = assay type: physicochemical; conditions: water, drug alone, read-out: soluble in water

- % p-Hexadecylaminobenzoic acid Sodium Salt in Solution, After 1 minute ([1]; 1 minute): 4%
- % p-Hexadecylaminobenzoic acid Sodium Salt in Solution, After 30 minutes ([1]; 30 minutes): 2%
- solubility (physchem): 1 µg/mL
Structure (SMILES): CCCCCCCCCCCCCCCCNc1ccc(C(=O)[O-])cc1.[Na+]
